Experimental data taken from US10479784B2, “Substituted pyrazin-2-amines as inhibitors of ATR kinase” (Vertex Pharmaceuticals Incorporated, priority 2008, dated 2019).

What follows are molecules tested against full-length ATR (Homo sapiens (Human), UniProt Q13535) (assay: ATR Inhibition Assay (radioactive-phosphate incorporation)). Details: read-out: ATR Ki.
Format: biochemical
How it was run: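 Ki(app) was derived by non-linear regression of background-corrected initial rates of 33P incorporation into an 800 μM target peptide, read by phosphocellulose filter scintillation counting. Reaction conditions: 5 nM full-length ATR, 10 μM [γ-33P]ATP, pH 7.5 Tris buffer with MgCl2 and DTT, 25 °C, 10-min preincubation, 24 h run.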

Chain of full-length ATR (Q13535 whole entry): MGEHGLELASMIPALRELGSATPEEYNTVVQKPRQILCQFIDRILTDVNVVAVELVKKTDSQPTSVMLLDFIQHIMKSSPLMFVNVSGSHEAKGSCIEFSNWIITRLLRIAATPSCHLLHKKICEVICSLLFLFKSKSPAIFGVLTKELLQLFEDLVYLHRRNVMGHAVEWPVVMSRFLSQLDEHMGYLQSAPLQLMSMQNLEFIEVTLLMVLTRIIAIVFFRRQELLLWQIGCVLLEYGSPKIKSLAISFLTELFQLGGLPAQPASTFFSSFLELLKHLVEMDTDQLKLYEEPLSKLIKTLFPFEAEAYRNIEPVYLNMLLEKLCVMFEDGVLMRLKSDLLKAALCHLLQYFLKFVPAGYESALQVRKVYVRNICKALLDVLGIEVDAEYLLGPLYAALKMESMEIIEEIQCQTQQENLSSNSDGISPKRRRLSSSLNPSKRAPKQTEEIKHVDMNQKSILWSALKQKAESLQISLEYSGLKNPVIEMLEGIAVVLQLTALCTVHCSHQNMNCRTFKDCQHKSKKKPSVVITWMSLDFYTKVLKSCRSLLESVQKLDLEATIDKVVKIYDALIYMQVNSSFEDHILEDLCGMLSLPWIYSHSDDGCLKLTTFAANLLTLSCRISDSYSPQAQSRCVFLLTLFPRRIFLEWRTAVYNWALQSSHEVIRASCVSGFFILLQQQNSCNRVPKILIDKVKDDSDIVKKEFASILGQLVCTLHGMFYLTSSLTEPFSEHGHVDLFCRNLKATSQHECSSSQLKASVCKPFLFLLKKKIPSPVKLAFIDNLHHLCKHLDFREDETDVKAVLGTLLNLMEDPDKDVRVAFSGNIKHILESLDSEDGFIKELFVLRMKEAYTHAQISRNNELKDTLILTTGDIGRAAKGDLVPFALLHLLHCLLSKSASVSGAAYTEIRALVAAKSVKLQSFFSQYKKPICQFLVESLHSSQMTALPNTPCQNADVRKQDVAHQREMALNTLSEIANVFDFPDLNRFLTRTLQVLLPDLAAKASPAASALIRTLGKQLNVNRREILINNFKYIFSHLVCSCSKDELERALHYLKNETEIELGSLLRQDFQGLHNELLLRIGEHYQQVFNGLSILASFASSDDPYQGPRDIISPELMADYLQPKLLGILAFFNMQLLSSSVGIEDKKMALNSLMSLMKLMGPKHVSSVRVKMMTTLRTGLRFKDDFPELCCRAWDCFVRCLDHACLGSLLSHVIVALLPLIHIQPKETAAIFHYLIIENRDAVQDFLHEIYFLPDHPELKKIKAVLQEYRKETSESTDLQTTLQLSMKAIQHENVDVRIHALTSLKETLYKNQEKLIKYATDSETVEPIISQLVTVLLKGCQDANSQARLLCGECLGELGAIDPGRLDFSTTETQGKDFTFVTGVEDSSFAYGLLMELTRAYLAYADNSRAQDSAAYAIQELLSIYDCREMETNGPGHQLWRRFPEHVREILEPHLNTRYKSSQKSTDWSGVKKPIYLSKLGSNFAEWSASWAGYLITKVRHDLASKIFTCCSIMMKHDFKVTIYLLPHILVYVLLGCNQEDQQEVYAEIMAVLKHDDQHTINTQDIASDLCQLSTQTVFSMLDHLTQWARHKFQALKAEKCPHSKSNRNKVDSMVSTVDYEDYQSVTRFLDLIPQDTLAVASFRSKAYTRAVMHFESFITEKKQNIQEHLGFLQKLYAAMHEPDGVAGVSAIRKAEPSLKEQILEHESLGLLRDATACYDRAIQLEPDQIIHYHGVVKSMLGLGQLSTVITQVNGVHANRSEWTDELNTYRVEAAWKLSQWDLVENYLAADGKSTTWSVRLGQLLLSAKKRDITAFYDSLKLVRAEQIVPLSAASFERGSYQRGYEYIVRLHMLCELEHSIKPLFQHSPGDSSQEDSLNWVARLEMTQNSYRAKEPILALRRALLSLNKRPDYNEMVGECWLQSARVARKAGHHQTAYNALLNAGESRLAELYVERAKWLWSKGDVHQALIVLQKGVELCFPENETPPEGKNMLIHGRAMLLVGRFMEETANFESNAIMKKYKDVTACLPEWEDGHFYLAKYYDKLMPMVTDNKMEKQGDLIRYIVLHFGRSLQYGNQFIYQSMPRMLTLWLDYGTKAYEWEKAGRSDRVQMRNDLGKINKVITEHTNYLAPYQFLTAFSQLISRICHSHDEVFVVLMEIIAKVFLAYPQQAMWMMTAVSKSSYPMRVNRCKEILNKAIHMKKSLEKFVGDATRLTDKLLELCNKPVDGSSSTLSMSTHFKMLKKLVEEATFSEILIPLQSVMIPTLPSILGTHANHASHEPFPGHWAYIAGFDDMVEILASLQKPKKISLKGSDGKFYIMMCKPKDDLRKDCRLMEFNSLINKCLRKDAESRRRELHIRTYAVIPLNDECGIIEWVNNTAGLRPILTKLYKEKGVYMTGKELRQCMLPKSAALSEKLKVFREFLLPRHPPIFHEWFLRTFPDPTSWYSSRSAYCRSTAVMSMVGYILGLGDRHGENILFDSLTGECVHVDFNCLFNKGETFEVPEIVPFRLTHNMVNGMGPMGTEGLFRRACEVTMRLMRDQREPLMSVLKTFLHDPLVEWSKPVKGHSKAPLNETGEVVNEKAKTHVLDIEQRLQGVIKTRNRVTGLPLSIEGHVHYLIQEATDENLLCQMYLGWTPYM

Row | SMILES | Ki [nM]
1 | CN(C)C(=O)c1ccc(-c2cnc(N)c(-c3nnc(-c4ccccc4OCCCO)o3)n2)cc1 [IA-284, 4-[5-amino-6-[5-[2-(3-hydroxypropoxy)phenyl]-1,3,4-oxadiazol-2-yl]pyrazin-2-yl]-N,N-dimethyl-benzamide] | ≤ 10
2 | CC(C)S(=O)(=O)c1ccc(-c2cnc(N)c(-c3nnc(-c4cccc(C5CNC5)c4)o3)n2)cc1 [IA-185, 3-[5-[3-(azetidin-3-yl)phenyl]-1,3,4-oxadiazol-2-yl]-5-(4-isopropylsulfonylphenyl)pyrazin-2-amine] | 10 to 100
3 | CN1CCC(NC(=O)c2cccc(-c3cnc(N)c(C(=O)Nc4ccccc4)n3)c2)CC1 [Compound I-48, 3-amino-6-(3-(1-methylpiperidin-4-ylcarbamoyl)phenyl)-N-phenylpyrazine-2-carboxamide] | 100 to 5000
4 | Nc1ncc(-c2ccc(C(=O)N3CCC(N4CCCC4)CC3)cc2)nc1C(=O)Nc1ccccc1 [Compound I-71, 3-amino-N-phenyl-6-(4-(4-(pyrrolidin-1-yl)piperidine-1-carbonyl)phenyl) pyrazine-2-carboxamide] | 10 to 100
5 | Nc1ncc(-c2ccc(C(=O)N3CCCNCC3)c(F)c2)nc1-c1nnc(-c2ccccc2)o1 [IA-6] | ≤ 10
6 | N#Cc1cc(C(=O)N2CCCNCC2)ccc1-c1cnc(N)c(C(=O)Nc2nc3ccccc3[nH]2)n1 [Compound V-2] | ≤ 10
7 | CN(C)C(=O)c1ccc(-c2cnc(N)c(-c3nnc(Nc4cccc(C#N)c4)o3)n2)cc1 [IA-254, 4-[5-amino-6-[5-(3-cyanoanilino)-1,3,4-oxadiazol-2-yl]pyrazin-2-yl]-N,N-dimethyl-benzamide] | 100 to 5000
8 | CC(C)S(=O)(=O)c1ccc(-c2cnc(N)c(-c3nnc(-c4ccc(CN)cc4)o3)n2)cc1 [IA-222, 3-[5-[4-(aminomethyl)phenyl]-1,3,4-oxadiazol-2-yl]-5-(4-isopropylsulfonylphenyl)pyrazin-2-amine] | ≤ 10
9 | Nc1ncc(-c2ccccc2)nc1-c1nnc(-c2ccccc2)o1 [IA-49] | 10 to 100
10 | Nc1ncc(-c2ccc(C(=O)N3CCC(CO)CC3)cc2)nc1C(=O)Nc1ccccc1 [Compound I-79, 3-amino-6-(4-(4-(hydroxymethyl)piperidine-1-carbonyl)phenyl)-N-phenylpyrazine-2-carboxamide] | 10 to 100
11 | CN(C)Cc1ccccc1-c1cnc(N)c(-c2nnc(-c3ccccc3)o2)n1 [IA-118, 5-(2-((dimethylamino)methyl)phenyl)-3-(5-phenyl-1,3,4-oxadiazol-2-yl)pyrazin-2-amine] | 100 to 5000
12 | CC(C)S(=O)(=O)c1ccc(-c2cnc(N)c(-c3nnc(CCNC(=O)OC(C)(C)C)o3)n2)cc1 [IA-251, tert-butyl N-[2-[5-[3-amino-6-(4-isopropylsulfonylphenyl)pyrazin-2-yl]-1,3,4-oxadiazol-2-yl]ethyl]carbamate] | 100 to 5000
13 | Nc1ncc(-c2cccnc2)nc1C(=O)Nc1cccc(S(N)(=O)=O)c1 [Compound I-101, 3-amino-6-(pyridin-3-yl)-N-(3-sulfamoylphenyl)pyrazine-2-carboxamide] | 10 to 100
14 | CNCc1ccc(-c2nnc(-c3nc(-c4ccc(S(=O)(=O)C(C)C)c(Cl)c4)cnc3N)o2)c(F)c1 [IA-329, 5-(3-chloro-4-isopropylsulfonyl-phenyl)-3-[5-[2-fluoro-4-(methylaminomethyl)phenyl]-1,3,4-oxadiazol-2-yl]pyrazin-2-amine] | ≤ 10
15 | Cc1ccc2nc(-c3nc(-c4ccc(C(=O)N5CCCNCC5)cc4)cnc3N)[nH]c2c1 [Compound I-153, (4-(5-amino-6-(6-methyl-1H-benzo[d]imidazol-2-yl)pyrazin-2-yl)phenyl) (1,4-diazepan-1-yl)methanone] | 10 to 100
16 | CNCc1ccc(-c2nnc(-c3nc(-c4ccc(S(=O)(=O)C(C)C)cc4F)cnc3N)o2)cc1 [IA-292, 5-(2-fluoro-4-isopropylsulfonyl-phenyl)-3-[5-[4-(methylaminomethyl)phenyl]-1,3,4-oxadiazol-2-yl]pyrazin-2-amine] | ≤ 10
17 | CNCc1ccc(-c2nnc(-c3nc(-c4ccc(S(=O)(=O)N(C)C)cc4)cnc3N)o2)cc1 [IA-296, 4-[5-amino-6-[5-[4-(methylaminomethyl)phenyl]-1,3,4-oxadiazol-2-yl]pyrazin-2-yl]-N,N-dimethyl-benzenesulfonamide] | ≤ 10
18 | Cc1ccccc1NC(=O)c1nc(-c2cccnc2)cnc1N [Compound I-91, 3-amino-6-(pyridin-3-yl)-N-o-tolylpyrazine-2-carboxamide] | 100 to 5000
19 | NC(=O)c1ccc(NC(=O)c2nc(-c3cccnc3)cnc2N)cc1 [Compound I-92, 3-amino-N-(4-carbamoylphenyl)-6-(pyridin-3-yl)pyrazine-2-carboxamide] | 100 to 5000
20 | Nc1ncc(-c2ccc(F)cc2)nc1C(=O)Nc1ccccc1 [Compound I-4, 3-amino-6-(4-fluorophenyl)-N-phenylpyrazine-2-carboxamide] | 100 to 5000
21 | CNCc1ccc(-c2cc(-c3nc(-c4ccc(S(=O)(=O)C(C)C)cc4)cnc3N)on2)cc1Cl [IIA-13, 3-[3-[3-chloro-4-(methylaminomethyl)phenyl]isoxazol-5-yl]-5-(4-isopropylsulfonylphenyl)pyrazin-2-amine] | ≤ 10

Row | SMILES | Ki [nM]
22 | CS(=O)(=O)c1ccc(-c2cnc(N)c(-c3nc4cccnc4[nH]3)n2)cc1 [Compound I-112, 3-(3H-imidazo[4,5-b]pyridin-2-yl)-5-(4-(methylsulfonyl)phenyl) pyrazin-2-amine] | ≤ 10
23 | Nc1ncc(-c2cccc3[nH]ccc23)nc1-c1nnc(-c2ccccc2)o1 [IA-59] | 10 to 100
24 | COc1ccccc1NC(=O)c1nc(-c2ccco2)cnc1N [Compound I-30, 3-amino-6-(furan-2-yl)-N-(2-methoxyphenyl)pyrazine-2-carboxamide] | 10 to 100
25 | CNCc1ccc(-c2nnc(-c3nc(-c4ccc(S(=O)(=O)C5CCOC5)cc4)cnc3N)o2)c(F)c1 (stereo not drawn) [IA-347, 3-[5-[2-fluoro-4-(methylaminomethyl)phenyl]-1,3,4-oxadiazol-2-yl]-5-(4-tetrahydrofuran-3-ylsulfonylphenyl)pyrazin-2-amine] | ≤ 10
26 | COc1ncccc1NC(=O)c1nc(-c2ccc(S(C)(=O)=O)cc2)cnc1N [VII-1] | 10 to 100
27 | CCn1cc(-c2cnc(N)c(-c3nnc(-c4ccccc4)o3)n2)cn1 [IA-210, 5-(1-ethylpyrazol-4-yl)-3-(5-phenyl-1,3,4-oxadiazol-2-yl)pyrazin-2-amine] | 10 to 100
28 | CC(C)S(=O)(=O)c1ccc(-c2cnc(N)c(-c3nnc(-c4ccc([C@@H](C)N)cc4)o3)n2)cc1 [IA-124, 3-[5-[4-[(1R)-1-aminoethyl]phenyl]-1,3,4-oxadiazol-2-yl]-5-(4-isopropylsulfonylphenyl)pyrazin-2-amine] | ≤ 10
29 | CN(C)C(=O)c1ccc(-c2cnc(N)c(C(=O)Nc3ccccc3)n2)cc1 [Compound I-24, 3-amino-6-(4-(dimethylcarbamoyl)phenyl)-N-phenylpyrazine-2-carboxamide] | 10 to 100
30 | Nc1ncc(-c2ccc(O)nc2)nc1C(=O)Nc1ccccc1 [Compound I-32, 3-amino-6-(6-hydroxypyridin-3-yl)-N-phenylpyrazine-2-carboxamide] | 10 to 100
31 | CNCc1ccc(-c2nnc(-c3nc(-c4ccc(S(=O)(=O)C(C)C)cc4C#N)cnc3N)o2)cc1 [IA-331, 2-[5-amino-6-[5-[4-(methylaminomethyl)phenyl]-1,3,4-oxadiazol-2-yl]pyrazin-2-yl]-5-isopropylsulfonyl-benzonitrile] | ≤ 10
32 | NC(=O)C1CCN(C(=O)c2ccc(-c3cnc(N)c(C(=O)Nc4ccccc4)n3)cc2)CC1 [Compound I-77, 3-amino-6-(4-(4-carbamoylpiperidine-1-carbonyl)phenyl)-N-phenylpyrazine-2-carboxamide] | 10 to 100
33 | CC(C)(C)OC(=O)NCC[S+]([O-])c1ccccc1-c1cnc(N)c(-c2nnc(-c3ccccc3)o2)n1 (stereo not drawn) [IA-164, tert-butyl N-[2-[2-[5-amino-6-(5-phenyl-1,3,4-oxadiazol-2-yl)pyrazin-2-yl]phenyl]sulfinylethyl]carbamate] | 100 to 5000
34 | CCNCc1ccc(-c2nnc(-c3nc(-c4ccc(S(=O)(=O)C(C)C)cc4)cnc3N)o2)s1 [IA-83, 3-[5-[5-(ethylaminomethyl)-2-thienyl]-1,3,4-oxadiazol-2-yl]-5-(4-isopropylsulfonylphenyl)pyrazin-2-amine] | ≤ 10
35 | CN(C)C(=O)c1ccc(-c2cnc(N)c(-c3nnc(-c4ccccc4O)o3)n2)cc1 [IA-215, 4-[5-amino-6-[5-(2-hydroxyphenyl)-1,3,4-oxadiazol-2-yl]pyrazin-2-yl]-N,N-dimethyl-benzamide] | ≤ 10
36 | CNCc1ccc(-c2nnc(-c3nc(-c4ccc(S(=O)(=O)C5COC5)cc4)cnc3N)o2)cc1 [IA-308, 3-[5-[4-(methylaminomethyl)phenyl]-1,3,4-oxadiazol-2-yl]-5-[4-(oxetan-3-ylsulfonyl)phenyl]pyrazin-2-amine] | ≤ 10
37 | Nc1ncc(-c2ccc(C(=O)NCC3CCOCC3)cc2)nc1C(=O)Nc1ccccc1 [Compound I-69, 3-amino-N-phenyl-6-(4-((tetrahydro-2H-pyran-4-yl)methylcarbamoyl)phenyl)pyrazine-2-carboxamide] | 100 to 5000
38 | Nc1ncc(-c2ccncc2)nc1-c1nnc(-c2ccccc2)o1 [IA-60] | ≤ 10
39 | Nc1ncc(-c2cccnc2)nc1C(=O)Nc1ccccc1F [Compound I-96, 3-amino-N-(2-fluorophenyl)-6-(pyridin-3-yl)pyrazine-2-carboxamide] | 100 to 5000
40 | CCc1ccccc1-c1nnc(-c2nc(-c3ccc(C(=O)N(C)C)cc3)cnc2N)o1 [IA-155, 4-(5-amino-6-(5-(2-ethylphenyl)-1,3,4-oxadiazol-2-yl)pyrazin-2-yl)-N,N-dimethylbenzamide] | 10 to 100
41 | CN(C)C(=O)c1ccc(-c2cnc(N)c(-c3nnc(-c4ccc[nH]c4=O)o3)n2)cc1 [IA-53] | 10 to 100
42 | CC(C)S(=O)(=O)c1ccc(-c2cnc(N)c(-c3nnc(N)o3)n2)cc1 [IA-270, 5-[3-amino-6-(4-isopropylsulfonylphenyl)pyrazin-2-yl]-1,3,4-oxadiazol-2-amine] | ≤ 10
